Where a SMILES comes first, the peptide text is derived from it. [ ]: non-standard residue; d: D form. The star is where a group is joined. Bip(2'-Et,4'-O(CH2)4NH2) = CCc1cc(OCCCCN)ccc1-c1ccc(C[C@H](N)C(=O)O)cc1; Nva(5-(3,5-Me2Ph)) = Cc1cc(C)cc(CCC[C@H](N)C(=O)O)c1; Ala(1H-tetrazol-5-yl) = N[C@@H](Cc1nnn[nH]1)C(=O)O; αMePhe(2-F) = C[C@](N)(Cc1ccccc1F)C(=O)O; X9 = O=C([C@@H]1CCN(CCc2cnc[nH]2)C1)*; X8 = O=C([C@H]1CCN(CCc2cnc[nH]2)C1)*
Key:
human GLP1R [1] = molecular target: T1, human GLP1R (Homo sapiens, UniProt P43220); assay: Human GLP1R cAMP accumulation assay; assay type: cell-based; parameters: HEK293 cells over-expressing full length human GLP-1R were utilized; expressed in transfected cells; host or cells: HEK293 (HEK293/hGLP1R)
T1 sequence (P43220 24-463): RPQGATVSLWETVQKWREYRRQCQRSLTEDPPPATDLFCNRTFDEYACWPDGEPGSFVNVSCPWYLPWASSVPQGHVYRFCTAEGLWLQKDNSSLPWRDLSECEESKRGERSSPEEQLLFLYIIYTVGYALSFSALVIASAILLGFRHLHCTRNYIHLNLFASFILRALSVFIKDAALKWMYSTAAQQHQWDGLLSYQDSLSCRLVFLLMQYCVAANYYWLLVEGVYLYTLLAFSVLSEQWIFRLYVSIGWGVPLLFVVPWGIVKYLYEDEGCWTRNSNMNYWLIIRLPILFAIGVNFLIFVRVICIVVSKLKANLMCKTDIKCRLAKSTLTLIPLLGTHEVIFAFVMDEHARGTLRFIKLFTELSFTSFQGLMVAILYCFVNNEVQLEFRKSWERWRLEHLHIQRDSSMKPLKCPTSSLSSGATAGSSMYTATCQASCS
Procedure: 8.1 Human GLP1R cAMP Accumulation Assay (Cyclic AMP Determination)
The functional activity of the test compounds for agonizing GLP1R were evaluated using a cell-based assay. For the assay, HEK293 cells over-expressing full length human GLP-1R were utilized and the downstream cAMP accumulation was assessed as a measure of human GLP-1R stimulation. […] Diluted compounds were transferred to OptiPlates (100 nL/well) using an Echo liquid handler. HEK293/hGLP1R cells were thawed in 37° C. water-bath, washed 2 times with HBSS and re-suspended in assay buffer (HBSS+5 mM HEPES+500 μM IBMX+0.1% BSA). […] After centrifugation, the assay plate was incubated at 23° C. for 30 min. The reaction was terminated by adding 10 μL of lysis buffer containing D2-cAMP and a cAMP-antibody from the cyclic AMP immunoassay kit (Cisbio, Cat #62AM4PEJ). […] The levels of cAMP per well were calculated using a standard curve generated by GraphPad Prism. Percent activity was calculated according to the formula (% Activity=100%*(cAMP level-LC)/(HC-LC)). EC50 values were fitted from a four-parameter logistic equation over a 10-point response curve (GraphPad Prism).

HEK293/CRE-Luc cells = assay: Luciferase reporter assay, HEK293/CRE-Luc cells without GLP1R (Example 17); assay type: cell-based, human; details: HEK293/CRE-Luc cells without hGLP1R, payloads and linker-payloads; for EC50: read-out: EC50
Description: (§1) To test the activity of GLP1R agonist payloads, GLP1R agonist linker-payloads (LPs), and anti-GLP1R antibody tethered drug conjugates (ATDCs) of the invention, a cell-based cAMP responsive luciferase reporter assay was developed. To generate the assay cell line, the firefly luciferase gene was placed under the control of a cAMP response element (CRE) located upstream of a minimal promoter and transfected into HEK293 cells and referred to herein as HEK293/CRE-Luc cells.
(§2) Three-fold serial dilutions of free payloads or LPs were prepared in 100% DMSO, transferred to fresh assay media, and added to the cells at a final constant DMSO concentration of 0.2%. The last well in the plate served as a blank control containing only the assay media and 0.2% DMSO (untreated well) and was plotted as a continuation of the 3-fold serial dilution. Four to six hours later, luciferase activity was determined after the addition of One-Glo™ reagent (Promega, Cat #E6130) to each well. Relative light units (RLUs) were measured on an Envision luminometer (PerkinElmer) and EC50 values were determined using a four-parameter logistic equation over a 12-point dose response curve (GraphPad Prism). The signal to noise (S/N) was determined by taking the ratio of the highest RLU on the dose response curve to the RLU in the untreated wells. Data was generated across several experiments (A-E) with M2361 serving as a reference standard in each experiment to calculate the payload relative potency ((M2361 EC50/payload EC50)*100)) and relative S/N ((payload SN/M2361 SN)*100)).

human GLP1R [2] = molecular target: T1, human GLP1R; assay: Luciferase reporter assay, HEK293/CRE-Luc/hGLP1R (Example 17); assay type: cell-based; parameters: engineered to express full-length human GLP1R, cynomolgus GLP1R; expressed in transfected cells; host or cells: HEK293/CRE-Luc; details: HEK293/CRE-Luc/hGLP1R; for S/N: highest RLU / RLU of untreated wells; for EC50: payloads and linker-payloads, experiments A-E, M2361 repeated in each, read-out: EC50; for Relative Potency (% M2361 EC50) / Relative Signal:Noise (% M2361): relative to M2361 of the same experiment
Description: as §1, §2

[3] = HEK293/hGLP1R cells, Table 4, read-out: cAMP EC50

CCc1cc(OCCCCn2cc(COCCOCCOCCOCCNC(=O)CCC(=O)N3Cc4ccccc4C#Cc4ccccc43)nn2)ccc1-c1ccc(C[C@H](NC(=O)[C@H](CC(=O)O)NC(=O)[C@H](CO)NC(=O)[C@@H](NC(=O)[C@](C)(Cc2ccccc2F)NC(=O)[C@@H](NC(=O)CNC(=O)[C@H](Cc2nn[nH]n2)NC(=O)C(C)(C)C(=O)NCCc2cnc[nH]2)[C@@H](C)O)[C@@H](C)O)C(=O)N[C@@H](CCCc2cc(C)cc(C)c2)C(N)=O)cc1 [LP8, DIBAC-suc-PEG4-triazole-P8]
EC50 (human GLP1R [1]; [3]): 0.412 nM

CCc1cc(OCCCCNC(=O)CNC(=O)CNC(=O)CNC(=O)CNC(=O)[C@H](CO)NC(=O)CCC(=O)N2Cc3ccccc3C#Cc3ccccc32)ccc1-c1ccc(C[C@H](NC(=O)[C@H](CC(=O)O)NC(=O)[C@H](CO)NC(=O)[C@@H](NC(=O)[C@](C)(Cc2ccccc2F)NC(=O)[C@@H](NC(=O)CNC(=O)[C@H](Cc2nn[nH]n2)NC(=O)C(C)(C)C(=O)NCCc2cnc[nH]2)[C@@H](C)O)[C@@H](C)O)C(=O)N[C@@H](CCCc2cc(C)cc(C)c2)C(=O)Nc2ccccc2)cc1 [LP16, DIBAC-suc-SG4-P23]
EC50 (human GLP1R [1]; [3]): 1.04 nM

CCc1cc(OCCCCNC(=O)[C@@H](CO)NC(=O)CNC(=O)CNC(=O)CNC(=O)CNC(=O)COC2C#CCCCCC2)ccc1-c1ccc(C[C@H](NC(=O)[C@H](CC(=O)O)NC(=O)[C@H](CO)NC(=O)[C@@H](NC(=O)C(C)(Cc2ccccc2F)NC(=O)[C@@H](NC(=O)CNC(=O)[C@H](Cc2nn[nH]n2)NC(=O)C(C)(C)C(=O)NCCc2cnc[nH]2)[C@@H](C)O)[C@@H](C)O)C(=O)N[C@@H](CCCc2cc(C)cc(C)c2)C(N)=O)cc1 (stereo partly drawn) [LP19, COT-G4-(R)Ser-P9]
EC50 (human GLP1R [1]; [3]): 0.558 nM

CCc1cc(OCCCCNC(=O)CNC(=O)CNC(=O)CNC(=O)CNC(=O)[C@H](CO[C@@H]2OC(CO)[C@@H](O)C(O)C2O)NC(=O)CCC(=O)N2Cc3ccccc3C#Cc3ccccc32)ccc1-c1ccc(C[C@H](NC(=O)[C@H](CC(=O)O)NC(=O)[C@H](CO)NC(=O)[C@@H](NC(=O)[C@](C)(Cc2ccccc2F)NC(=O)[C@@H](NC(=O)CNC(=O)[C@H](Cc2nn[nH]n2)NC(=O)C(C)(C)C(=O)NCCc2cnc[nH]2)[C@@H](C)O)[C@@H](C)O)C(=O)N[C@@H](CCCc2cc(C)cc(C)c2)C(N)=O)cc1 (some centres unmarked) [LP20, DIBAC-suc-(glucose) SG4-P9]
EC50 (human GLP1R [1]; [3]): 0.314 nM

CCc1cc(OCCCCNC(=O)CCOCCOCCOCCOCCOCCOCCOCCOCCOCCOCCOCCOCCOCCOCCOCCOCCOCCOCCOCCOCCOCCOCCOCCOCCNC(=O)CCC(=O)N2Cc3ccccc3-c3nnn(CC4OC5OC6C(CO)OC(OC7C(CO)OC(OC8C(CO)OC(OC9C(CO)OC(OC%10C(CO)OC(OC4C(O)C5O)C(O)C%10O)C(O)C9O)C(O)C8O)C(O)C7O)C(O)C6O)c3-c3ccccc32)ccc1-c1ccc(C[C@H](NC(=O)[C@H](CC(=O)O)NC(=O)[C@H](CO)NC(=O)[C@@H](NC(=O)[C@](C)(Cc2ccccc2F)NC(=O)[C@@H](NC(=O)CNC(=O)[C@H](Cc2nn[nH]n2)NC(=O)C(C)(C)C(=O)NCCc2cnc[nH]2)[C@@H](C)O)[C@@H](C)O)C(=O)N[C@@H](CCCc2cc(C)cc(C)c2)C(N)=O)cc1 (some centres unmarked) [LP22, cyclo-dex-trin-triazole-DIBAC-suc-PEG24-P9]
EC50 (human GLP1R [1]): 2.71 nM

CCc1cc(OCCCCNC(=O)[C@H](CO)NC(=O)CNC(=O)CNC(=O)CNC(=O)CNC(=O)C(CO)NC(=O)CNC(=O)CNC(=O)CNC(=O)CN)ccc1-c1ccc(C[C@H](NC(=O)[C@H](CC(=O)O)NC(=O)[C@H](CO)NC(=O)[C@@H](NC(=O)[C@](C)(Cc2ccccc2F)NC(=O)[C@@H](NC(=O)CNC(=O)[C@H](Cc2nn[nH]n2)NC(=O)C(C)(C)C(=O)NCCc2cnc[nH]2)[C@@H](C)O)[C@@H](C)O)C(=O)N[C@@H](CCCc2cc(C)cc(C)c2)C(N)=O)cc1 (some centres unmarked) [M2945]
S/N (HEK293/CRE-Luc cells): 1.4
EC50 (HEK293/CRE-Luc cells): > 20 nM
S/N (human GLP1R [2]): 71.8
EC50 (human GLP1R [2]): 0.0255 nM
Relative Potency (% M2361 EC50) (human GLP1R [2]): 31.4%
Relative Signal:Noise (% M2361) (human GLP1R [2]): 99.9%

CCc1cc(OCCCCN)ccc1-c1ccc(C[C@H](NC(=O)[C@H](CC(=O)O)NC(=O)[C@H](CO)NC(=O)[C@@H](NC(=O)[C@](C)(Cc2ccccc2F)NC(=O)[C@@H](NC(=O)CNC(=O)[C@H](Cc2nn[nH]n2)NC(=O)[C@]2(C)CCN(CCc3cnc[nH]3)C2=O)[C@@H](C)O)[C@@H](C)O)C(=O)N[C@@H](CCCc2cc(C)cc(C)c2)C(N)=O)cc1 [P14-S]
EC50 (human GLP1R [1]; [3]): 0.727 nM

CCc1cc(OCCCCN)ccc1-c1ccc(C[C@H](NC(=O)[C@H](CC(=O)O)NC(=O)[C@H](CO)NC(=O)[C@@H](NC(=O)[C@](C)(Cc2ccccc2F)NC(=O)[C@@H](NC(=O)CNC(=O)[C@H](Cc2nn[nH]n2)NC(=O)[C@@]2(C)CCN(CCc3cnc[nH]3)C2=O)[C@@H](C)O)[C@@H](C)O)C(=O)N[C@@H](CCCc2cc(C)cc(C)c2)C(N)=O)cc1 [P15]
S/N (HEK293/CRE-Luc cells): 1.1
EC50 (HEK293/CRE-Luc cells): > 200 nM
S/N (human GLP1R [2]): 67.8
Relative Potency (% M2361 EC50) (human GLP1R [2]): 40.3%
Relative Signal:Noise (% M2361) (human GLP1R [2]): 103.1%

CCc1cc(OCCCCN)ccc1-c1ccc(C[C@H](NC(=O)[C@H](CC(=O)O)NC(=O)[C@H](CO)NC(=O)[C@@H](NC(=O)[C@](C)(Cc2ccccc2F)NC(=O)[C@@H](NC(=O)CNC(=O)[C@H](Cc2nn[nH]n2)NC(=O)[C@H]2CCN(CCc3cnc[nH]3)C2)[C@@H](C)O)[C@@H](C)O)C(=O)N[C@@H](CCCc2cc(C)cc(C)c2)C(N)=O)cc1 [P16-S] (X8-[Ala(1H-tetrazol-5-yl)]GT[αMePhe(2-F)]TSD[Bip(2'-Et,4'-O(CH2)4NH2)][Nva(5-(3,5-Me2Ph))]-NH2)
EC50 (human GLP1R [1]; [3]): 0.544 nM

CCc1cc(OCCCCN)ccc1-c1ccc(C[C@H](NC(=O)[C@H](CC(=O)O)NC(=O)[C@H](CO)NC(=O)[C@@H](NC(=O)[C@](C)(Cc2ccccc2F)NC(=O)[C@@H](NC(=O)CNC(=O)[C@H](Cc2nn[nH]n2)NC(=O)[C@H]2CCN(CCc3cnc[nH]3)C2)[C@@H](C)O)[C@@H](C)O)C(=O)N[C@@H](CCCc2cc(C)cc(C)c2)C(N)=O)cc1 [P16] (X8-[Ala(1H-tetrazol-5-yl)]GT[αMePhe(2-F)]TSD[Bip(2'-Et,4'-O(CH2)4NH2)][Nva(5-(3,5-Me2Ph))]-NH2)
S/N (HEK293/CRE-Luc cells): 1.1
EC50 (HEK293/CRE-Luc cells): > 200 nM
S/N (human GLP1R [2]): 55.1
EC50 (human GLP1R [2]): 0.217 nM
Relative Potency (% M2361 EC50) (human GLP1R [2]): 2.5%
Relative Signal:Noise (% M2361) (human GLP1R [2]): 83.8%

CCc1cc(OCCCCN)ccc1-c1ccc(C[C@H](NC(=O)[C@H](CC(=O)O)NC(=O)[C@H](CO)NC(=O)[C@@H](NC(=O)[C@](C)(Cc2ccccc2F)NC(=O)[C@@H](NC(=O)CNC(=O)[C@H](Cc2nn[nH]n2)NC(=O)[C@@H]2CCN(CCc3cnc[nH]3)C2)[C@@H](C)O)[C@@H](C)O)C(=O)N[C@@H](CCCc2cc(C)cc(C)c2)C(N)=O)cc1 [P17-R] (X9-[Ala(1H-tetrazol-5-yl)]GT[αMePhe(2-F)]TSD[Bip(2'-Et,4'-O(CH2)4NH2)][Nva(5-(3,5-Me2Ph))]-NH2)
EC50 (human GLP1R [1]; [3]): 11.2 nM

CCc1cc(OCCCCN)ccc1-c1ccc(C[C@H](NC(=O)[C@H](CC(=O)O)NC(=O)[C@H](CO)NC(=O)[C@@H](NC(=O)[C@](C)(Cc2ccccc2F)NC(=O)[C@@H](NC(=O)CNC(=O)[C@@H](N)CCC(N)=O)[C@@H](C)O)[C@@H](C)O)C(=O)N[C@@H](CCCc2cc(C)cc(C)c2)C(N)=O)cc1 [P20, (3S)-4-[[(1S)-1-[[4-[4-(4-aminobutoxy)-2-ethyl-phenyl]phenyl]methyl]-2-[[(1S)-1-carbamoyl-4-(3,5-dimethylphenyl)butyl]amino]-2-oxo-ethyl]amino]-3-[[(2S)-2-[[(2S,3R)-2-[[(2S)-2-[[(2S,3R)-2-[[2-[[(2S)-2,5-diamino-5-oxopentanoyl]amino]acetyl]amino]-3-hydroxy-butanoyl]amino]-3-(2-fluorophenyl)-2-methyl-propanoyl]amino]-3-hydroxybutanoyl]amino]-3-hydroxy-propanoyl]amino]-4-oxo-butanoic acid]
EC50 (human GLP1R [1]; [3]): 0.37 nM
